Measurements: US5776944A, “7-(4-aminomethyl-3-methyloxyiminopyrroplidin-1-yl)-1-cyclopropyl-6-flu oro-4-oxo-1,4-dihydro-1,8-naphthyridine-3-carboxylic acid and the process for the preparation thereof” (LG Chemical Ltd., priority 1994, dated 1998)
In brackets after ≈: the same amount, converted by molar mass. Read-outs that look alike come from different tables or passages of the source.

Key:
[1] = test system: Pseudomonas aeruginosa 1912E; test: In vitro antibacterial activity (MIC, agar dilution), Biological Example 1; format: cell-based; conditions: 18 h; Pseudomonas aeruginosa 1912E, Table 25; read-out: Minimum Inhibitory Concentration
Acute oral toxicity test = conditions: in vivo, ICR male mouse, 7 days
Procedure: To determine the acute oral toxicity of the compounds prepared in Examples 1 and 34, the test solution containing the compounds in various concentrations were orally administered to ICR male mouse in an amount of 10 ml per kg of body weight. For 7 days after administration, the lethality and the conditions of test mouse were observed, from which LD50 value (mg/kg), was calculated.

[2] = test system: Enterobacter cloacae 1194E; test: microbe, parasite or virus in culture; format: cell-based; conditions: 18 h, read-out: Minimum Inhibitory Concentration
[3] = test system: Staphylococcus aureus giorgio; test: In vitro antibacterial activity (MIC, agar dilution), Biological Example 1; format: cell-based; conditions: 18 h, Table 25, read-out: Minimum Inhibitory Concentration
Bacillus subtilis 6633 [4] = test: as above; format: cell-based; conditions: 18 h; Bacillus subtilis 6633, Table 25; read-out: Minimum Inhibitory Concentration
Micrococcus luteus 9341 [5] = test: as above; format: cell-based; conditions: 18 h; Micrococcus luteus 9341, Table 25; read-out: Minimum Inhibitory Concentration
[6] = test system: Staphylococcus aureus 6538p; test: as above; format: cell-based; conditions: 18 h, Table 25, read-out: Minimum Inhibitory Concentration
Enterobacter cloacae P99 [7] = test: microbe, parasite or virus in culture; format: cell-based; conditions: P99, 18 h, read-out: Minimum Inhibitory Concentration
[8] = test system: Salmonella typimurium 14028; test: In vitro antibacterial activity (MIC, agar dilution), Biological Example 1; format: cell-based; conditions: 18 h; Salmonella typimurium 14028, Table 25; read-out: Minimum Inhibitory Concentration
[9] = test system: Pseudomonas aeruginosa 10145; test: as above; format: cell-based; conditions: 18 h; Pseudomonas aeruginosa 10145, Table 25; read-out: Minimum Inhibitory Concentration
[10] = test system: Acinetobacter calcoaceticus 15473; test: as above; format: cell-based; conditions: 18 h; Acinetobacter calcoaceticus 15473, Table 25; read-out: Minimum Inhibitory Concentration
Staphylococcus aureus 77 [11] = test: as above; format: cell-based; conditions: 18 h; Staphylococcus aureus 77, Table 25; read-out: Minimum Inhibitory Concentration
Escherichia coli 10536 [12] = test: as above; format: cell-based; conditions: 18 h; Escherichia coli 10536, Table 25; read-out: Minimum Inhibitory Concentration
[13] = test system: Escherichia coli TEM3 3455E; test: microbe, parasite or virus in culture; format: cell-based; conditions: TEM33455E, 18 h, read-out: Minimum Inhibitory Concentration
[14] = test system: Staphylococcus epidermidis 887E; test: In vitro antibacterial activity (MIC, agar dilution), Biological Example 1; format: cell-based; conditions: 18 h, Table 25, read-out: Minimum Inhibitory Concentration
[15] = test system: Citrobacter diversus 2046E; test: as above; format: cell-based; conditions: Citrobacter koseri, 18 h, Table 25, read-out: Minimum Inhibitory Concentration
Escherichia coli 3190Y [16] = test: as above; format: cell-based; conditions: 18 h, Table 25, read-out: Minimum Inhibitory Concentration
[17] = test system: Staphylococcus epidermidis 178; test: as above; format: cell-based; conditions: 18 h; Staphylococcus epidermidis 178, Table 25; read-out: Minimum Inhibitory Concentration
Escherichia coli 851E [18] = test: as above; format: cell-based; conditions: 18 h, Table 25, read-out: Minimum Inhibitory Concentration
[19] = test system: Klebsiella aerogenes 1976E; test: as above; format: cell-based; conditions: 18 h, Table 25, read-out: Minimum Inhibitory Concentration
[20] = test system: Klebsiella aerogenes 1082E; test: as above; format: cell-based; conditions: 18 h, Table 25, read-out: Minimum Inhibitory Concentration
[21] = test system: Streptococcus faecalis 29212; test: as above; format: cell-based; conditions: Enterococcus faecalis, 18 h; Streptococcus faecalis 29212, Table 25; read-out: Minimum Inhibitory Concentration
[22] = test system: Staphylococcus aureus 241; test: as above; format: cell-based; conditions: 18 h; Staphylococcus aureus 241, Table 25; read-out: Minimum Inhibitory Concentration
[23] = test system: Escherichia coli TEM5 3739E; test: microbe, parasite or virus in culture; format: cell-based; conditions: TEM53739E, 18 h, read-out: Minimum Inhibitory Concentration
[24] = test system: Escherichia coli TEM9 2639E; test: microbe, parasite or virus in culture; format: cell-based; conditions: TEM92639E, 18 h, read-out: Minimum Inhibitory Concentration
Enterobacter cloacae P99 [25] = test: microbe, parasite or virus in culture; format: cell-based; conditions: P99, 18 h, read-out: Minimum Inhibitory Concentration: MIC
Micrococcus luteus 9341 [26] = test: In vitro antibacterial activity (MIC, agar medium dilution), Biological Example 4; format: cell-based; conditions: 18 h; Micrococcus luteus 9341, Table 31; read-out: Minimum Inhibitory Concentration: MIC
[27] = test system: Citrobacter diversus 2046E; test: as above; format: cell-based; conditions: Citrobacter koseri, 18 h, Table 31, read-out: Minimum Inhibitory Concentration: MIC
[28] = test system: Escherichia coli TEM9 2639E; test: as above; format: cell-based; conditions: TEM92639E, 18 h, read-out: Minimum Inhibitory Concentration: MIC
[29] = test system: Staphylococcus aureus giorgio; test: as above; format: cell-based; conditions: 18 h, Table 31, read-out: Minimum Inhibitory Concentration: MIC
Escherichia coli 851E [30] = test: as above; format: cell-based; conditions: 18 h, Table 31, read-out: Minimum Inhibitory Concentration: MIC
[31] = test system: Acinetobacter calcoaceticus 15473; test: as above; format: cell-based; conditions: 18 h; Acinetobacter calcoaceticus 15473, Table 31; read-out: Minimum Inhibitory Concentration: MIC
[32] = test system: Klebsiella aerogenes 1082E; test: as above; format: cell-based; conditions: 18 h, Table 31, read-out: Minimum Inhibitory Concentration: MIC
[33] = test system: Streptococcus faecalis 29212; test: as above; format: cell-based; conditions: Enterococcus faecalis, 29212, 18 h, Streptococcus faecalis 29212, Table 31; read-out: Minimum Inhibitory Concentration: MIC
Staphylococcus aureus 77 [34] = test: as above; format: cell-based; conditions: 18 h; Staphylococcus aureus 77, Table 31; read-out: Minimum Inhibitory Concentration: MIC
[35] = test system: Enterobacter cloacae 1194E; test: microbe, parasite or virus in culture; format: cell-based; conditions: 18 h, read-out: Minimum Inhibitory Concentration: MIC
[36] = test system: Escherichia coli TEM5 3739E; test: In vitro antibacterial activity (MIC, agar medium dilution), Biological Example 4; format: cell-based; conditions: TEM53739E, 18 h, read-out: Minimum Inhibitory Concentration: MIC
[37] = test system: Escherichia coli TEM3 3455E; test: as above; format: cell-based; conditions: TEM33455E, 18 h, read-out: Minimum Inhibitory Concentration: MIC, Escherichia coli TEM3 3455E, Table 31
[38] = test system: Staphylococcus aureus 241; test: as above; format: cell-based; conditions: Staphylococcus aureus, 241, 18 h, Staphylococcus aureus 241, Table 31; read-out: Minimum Inhibitory Concentration: MIC
Escherichia coli 10536 [39] = test: as above; format: cell-based; conditions: Escherichia coli, 10536, 18 h, Escherichia coli 10536, Table 31; read-out: Minimum Inhibitory Concentration: MIC
[40] = test system: Staphylococcus aureus 6538p; test: as above; format: cell-based; conditions: 18 h, Table 31, read-out: Minimum Inhibitory Concentration: MIC
[41] = test system: Klebsiella aerogenes 1976E; test: as above; format: cell-based; conditions: 18 h, Table 31, read-out: Minimum Inhibitory Concentration: MIC
Escherichia coli 3190Y [42] = test: as above; format: cell-based; conditions: 18 h, Table 31, read-out: Minimum Inhibitory Concentration: MIC
[43] = test system: Pseudomonas aeruginosa 10145; test: as above; format: cell-based; conditions: Pseudomonas aeruginosa, 10145, 18 h, Pseudomonas aeruginosa 10145, Table 31; read-out: Minimum Inhibitory Concentration: MIC
[44] = test system: Staphylococcus epidermidis 887E; test: as above; format: cell-based; conditions: 18 h, Staphylococcus epidermidis 887E, Table 31, read-out: Minimum Inhibitory Concentration: MIC
Proteus vulgaris 6059 = test: as above; format: cell-based; conditions: 18 h; Proteus vulgaris 6059, Table 31; read-out: Minimum Inhibitory Concentration: MIC
[45] = test system: Staphylococcus epidermidis 178; test: as above; format: cell-based; conditions: 18 h; Staphylococcus epidermidis 178, Table 31; read-out: Minimum Inhibitory Concentration: MIC
[46] = test system: Salmonella thypimurium 14028; test: as above; format: cell-based; conditions: 18 h; Salmonella thypimurium 14028, Table 31; read-out: Minimum Inhibitory Concentration: MIC
[47] = test system: Pseudomonas aeruginosa 6065Y; test: as above; format: cell-based; conditions: 18 h, Table 31, read-out: Minimum Inhibitory Concentration: MIC
Procedure: (§1) In order to determine the antibacterial activitiers of the E- and Z-isomner of the compound 180 which were separated in Example 203, and of 7- (4-aminomethyl-3-methyloxylminopyrrolidin-1-yl)-1-cyclopropyl-6-fluoro-4-oxo-1,4-dihydro-1,8-naphthyridine-3-carboxylic acid methanesulfonate prepared in Example 204, in vitro antibacterial activities of them were measured using agar medium dilution method. The results were as described in the following Tables 31 and 32.

Seratis marsecence 1826E = test: as above; format: cell-based; conditions: 18 h, Table 31, read-out: Minimum Inhibitory Concentration: MIC
Procedure: as §1

Bacillus subtilis 6633 [48] = test: as above; format: cell-based; conditions: 18 h; Bacillus subtilis 6633, Table 31; read-out: Minimum Inhibitory Concentration: MIC
[49] = test system: Pseudomonas aeruginosa 1912E; test: as above; format: cell-based; conditions: 18 h, Table 31, read-out: Minimum Inhibitory Concentration: MIC

NCC1CN(c2nc3c(cc2F)c(=O)c(C(=O)O)cn3C2CC2)CC1=NOCc1ccccc1 (stereo not shown) [Example 1, 7-(4-aminomethyl-3-benzyloxyimino-pyrrolidin-1-yl)-1-cyclopropyl-6-fluoro-1,4-dihydro-4-oxo-1,8-naphthyridine-3-carboxylic acid]
MIC [1]: 1 µg/mL (≈ 2.15 µM)
LD50 at 168 h (Acute oral toxicity test): > 3000 mg/kg
MIC [2]: 0.031 µg/mL (≈ 0.0666 µM)
MIC [3]: ≤ 0.008 µg/mL
MIC (Bacillus subtilis 6633 [4]): ≤ 0.008 µg/mL
MIC (Micrococcus luteus 9341 [5]): 0.063 µg/mL (≈ 0.135 µM)
MIC [6]: ≤ 0.008 µg/mL
MIC (Enterobacter cloacae P99 [7]): ≤ 0.008 µg/mL
MIC [8]: 0.13 µg/mL (≈ 0.279 µM)
MIC [9]: 2 µg/mL (≈ 4.3 µM)
MIC [10]: ≤ 0.008 µg/mL
MIC (Staphylococcus aureus 77 [11]): ≤ 0.008 µg/mL
MIC (Escherichia coli 10536 [12]): ≤ 0.008 µg/mL
MIC [13]: 0.25 µg/mL (≈ 0.537 µM)
MIC [14]: ≤ 0.008 µg/mL
MIC [15]: 0.063 µg/mL (≈ 0.135 µM)
MIC (Escherichia coli 3190Y [16]): ≤ 0.008 µg/mL
MIC [17]: 2 µg/mL (≈ 4.3 µM)
MIC (Escherichia coli 851E [18]): 0.016 µg/mL (≈ 0.0344 µM)
MIC [19]: 0.25 µg/mL (≈ 0.537 µM)
MIC [20]: 0.063 µg/mL (≈ 0.135 µM)
MIC [21]: 0.031 µg/mL (≈ 0.0666 µM)
MIC [22]: 2 µg/mL (≈ 4.3 µM)
MIC [23]: 0.063 µg/mL (≈ 0.135 µM)
MIC [24]: 0.063 µg/mL (≈ 0.135 µM)

CO/N=C1/CN(c2nc3c(cc2F)c(=O)c(C(=O)O)cn3C2CC2)CC1CN (stereo not drawn) [E-isomer]
MIC (Enterobacter cloacae P99 [25]): 0.031 µg/mL (≈ 0.0796 µM)
MIC (Micrococcus luteus 9341 [26]): 0.5 µg/mL (≈ 1.28 µM)
MIC [27]: 0.13 µg/mL (≈ 0.334 µM)
MIC [28]: 0.13 µg/mL (≈ 0.334 µM)
MIC [29]: 0.063 µg/mL (≈ 0.162 µM)
MIC (Escherichia coli 851E [30]): 0.063 µg/mL (≈ 0.162 µM)
MIC [31]: 0.25 µg/mL (≈ 0.642 µM)
MIC [32]: 0.13 µg/mL (≈ 0.334 µM)
MIC [33]: 0.25 µg/mL (≈ 0.642 µM)
MIC (Staphylococcus aureus 77 [34]): 0.063 µg/mL (≈ 0.162 µM)
MIC [35]: 0.13 µg/mL (≈ 0.334 µM)
MIC [36]: 0.5 µg/mL (≈ 1.28 µM)
MIC [37]: 0.5 µg/mL (≈ 1.28 µM)
MIC [38]: 16 µg/mL (≈ 41.1 µM)
MIC (Escherichia coli 10536 [39]): 0.031 µg/mL (≈ 0.0796 µM)
MIC [40]: 0.063 µg/mL (≈ 0.162 µM)
MIC [41]: 0.25 µg/mL (≈ 0.642 µM)
MIC (Escherichia coli 3190Y [42]): 0.016 µg/mL (≈ 0.0411 µM)
MIC [43]: 2 µg/mL (≈ 5.14 µM)
MIC [44]: 0.031 µg/mL (≈ 0.0796 µM)
MIC (Proteus vulgaris 6059): 1 µg/mL (≈ 2.57 µM)
MIC [45]: 32 µg/mL (≈ 82.2 µM)
MIC [46]: 0.13 µg/mL (≈ 0.334 µM)
MIC [47]: 32 µg/mL (≈ 82.2 µM)
MIC (Seratis marsecence 1826E): 0.5 µg/mL (≈ 1.28 µM)
MIC (Bacillus subtilis 6633 [48]): 0.031 µg/mL (≈ 0.0796 µM)
MIC [49]: 1 µg/mL (≈ 2.57 µM)
